Experimental data published in patent US9365851B2, “Spalt-like transcription factor 4 (SALL4) and uses thereof” (National University of Singapore, priority 2011, dated 2016).
“Also recorded” adds a separate entry of the source.

Assays:
SNU-398 cells = experiment: Cell viability assay (MTT/MTS); format: cell-based, human; settings: for cell viability / number of viable cells: SNU-398 (high SALL4), 72 h; for cell viability upon SALL4 knockdown: SNU-398, MTS
Procedure: Cell viability was determined 72 hours after peptide treatments. Absorbance at 490 nm is directly correlated to cell viability. Wild type functional SALL4 peptide (wt), mutant non-functional SALL4 peptide (Mut.), trichostatin A (TSA), scrambled control peptide (Scr.), wild type peptide+PTEN inhibitor SF1670 (wt+Inh.) were given to the cells at the indicated concentration. PTEN inhibitor concentration was 400 nM. (31C, 31D) Western blot analyses of the effects of peptides on PTEN, AKT, and pAKT expression on SNU-398 (31C) and SNU-387 (31D) cells 72 hours following peptide treatments. 20 μM of wt or Scr. peptide or 100 nM of TSA was used. PTEN inhibitor concentration was 400 nM. (31E) Representative images show NOD/SCID mice transplanted with Scr peptide- and wt peptide-treated SNU-398 cells (left) and the dissected subcutaneous tumors (right). Arrow indicates subcutaneous tumor. (31F) Growth curve of subcutaneous tumors (left panel) and tumor weight of tumors dissected at day 26 post-transplantation (right panel). Results are mean±s.d. n=5; * P<0.05. (31G) Representative images show NOD/SCID mice transplanted with 3 million SNU-398 cells at the left flank and treated intraperitoneally for five consecutive days with 56 mg/kg body weight TAT-Mut. peptide or 60 mg/kg body weight wt peptide (top panel) and the dissected subcutaneous tumors (bottom). (31H) Tumor weight of tumors dissected at day 18 post-transplantation and post-treatment of mice treated intraperitoneally with TAT fusion peptides as described in 5 g. Results are mean±s.d. n=5; * P<0.05.
(§1) Cell viability assay (MTT) (Invitrogen) was performed according to the manufacturer's instructions. Briefly—10000 cells were seeded in 100 ul medium in 96 well plates. The next day cells were treated as indicated on the figures. At the designated time after the treatment 20 ul of 5 mg/ml MTT solution was added to each well. After 3.5 h incubation at 37 C the medium was removed and the reaction was terminated with a solution of 4 mM HCl, 0.1% Nondet P-40 (NP40) all in isopropanol in dark on orbital shaker for […]. at room temperature. The absorbance was read at 590 nm with a reference filter of 620 nm in Spectromax M3 (ABI) spectrophotometer.
Multiple leukemic and solid tumor cancer cell lines with high or low/no SALL4 expression (FIG. 10A) were chosen to test the biological effect(s) of the wild type peptide. Wild type or scrambled peptide was delivered into tumor cells at various concentrations, and their effects on cells were evaluated 72 hours post-treatment by the MTS cell viability assay. […] The effect of wild type peptide is SALL4-specific, as it had no effect on KBM5, an AML cell line with undetectable endogenous SALL4 expression. We were surprised to see that the wild type peptide had no effect on a high SALL4-expressing endometrioid cancer cell line, AN3CA. This prompted checking whether PTEN, a gene repressed by SALL4 through its interaction with NuRD 27, was present in this cell line. According to the model herein, the function of wild type peptide requires both the expression of SALL4 and intact SALL4 downstream target genes, such as PTEN. In tumor cells with PTEN deletion, even though wild type peptide could compete with endogenous SALL4 in interacting with the HDAC complex, an anti-proliferative effect might not be observed. Therefore, expression of PTEN was evaluated in AN3CA cells along with other cell lines. While PTEN protein was present in all the other cell lines, it was absent in AN3CA cells (FIG. 10C), with reported deletion mutation of the gene in this cell line 40,41. […] Furthermore, the anti-proliferative effect also required certain downstream targets, such as PTEN.
7000 cells were seeded in each wells of a microtiter plate in 100 μL of complete medium. Cells from each treatment were seeded in duplicate. Controls using the same medium without cells were set up in parallel. […]

HL-60 cells = experiment: Cell viability assay (MTT/MTS); format: cell-based, human; settings: HL-60, 48-72 h
Procedure: FIG. 17: SALL4 peptide reduces the viability of leukemic HL-60 cells. HL60 human acute promyelocytic leukemia cells (ATCC), were cultured in RPMI medium with 10% FBS (Invitrogen). 5000 cells/well were seeded in 96 well plate. Peptides: MSRRKQAKPQHI-wt (SEQ ID NO: 1) and MSRRAQAKPQHI-mutant (SEQ ID NO: 6) were synthesized by Biosynthesis Inc. to 85% purity. Peptides and TSA were re-suspended in PBS and added to the final concentration as indicated. WT peptide was re-added 24 hours after the initial addition as indicated. Experiment was performed in triplicate. MTS assay was performed by adding 20 ul of the CellTiter 96® AQueous One Solution Reagent (Promega) directly to the cells in medium, incubating for 2 hours and then recording absorbance at 490 nm with a 96-well plate reader. The quantity of formazan product as measured by the amount of 490 nm absorbance is directly proportional to the number of living cells in culture.
as §1
Multiple cell lines with or without SALL4 expression were chosen to test the biological effect(s) of this wt peptide. Wt or its control (Scr or Mut) peptide was delivered into tumor cells at various concentrations, and their effects on cells were evaluated at 48 or 72 hours post treatment by a MTT assay (Manufacture name). […] Since, as proposed herein, wt peptide can compete with SALL4 and release it from recruiting HDAC complex NuRD, the wt peptide would likely work as a HDAC inhibitor. Therefore, as a positive control, TSA, a broad HDAC inhibitor, was used in the same group of experiments along with the wt and Scr peptide.
Multiple leukemic and solid tumor cancer cell lines with high or low/no SALL4 expression (FIG. 10A) were chosen to test the biological effect(s) of the wild type peptide. Wild type or scrambled peptide was delivered into tumor cells at various concentrations, and their effects on cells were evaluated 72 hours post-treatment by the MTS cell viability assay. […] The effect of wild type peptide is SALL4-specific, as it had no effect on KBM5, an AML cell line with undetectable endogenous SALL4 expression. […] Therefore, expression of PTEN was evaluated in AN3CA cells along with other cell lines. […]

## Scr peptide: same 12 amino acids as the wt peptide, but in a scrambled sequence; negative control (SRMRQKIHPKIQ) [reference compound]
SNU-398 cells
  cell viability / number of viable cells: remained unaffected
HL-60 cells
  cell viability: remained unaffected

## CTATTTAGCCAAAGGCAAA (short hairpin RNA, chemistry and delivery not given here, further chemistry not given here) [E5 shRNA]
SNU-398 cells
  cell viability upon SALL4 knockdown: number of viable cells decreased
SNU-398 cells; listed as E5
  cell viability upon SALL4 knockdown: decreased cell viability

## CC(/C=C/C(=O)NO)=C\[C@@H](C)C(=O)c1ccc(N(C)C)cc1 [TSA, Trichostatin A, reference compound]
SNU-398 cells
  cell viability / number of viable cells: effectively induced reduction in the number of viable HCC cells

## H-MSRRKQAKPQHI-OH [wt peptide, MSRRKQAKPQHI]
SNU-398 cells
  cell viability / number of viable cells: decreased cell viability; also recorded: reduced the amount of living cells in dose dependent manner
SNU-398 cells; listed as SALL4 peptide (wt)
  cell viability / number of viable cells: the number of viable cells was reduced
SNU-398 cells; listed as wild type peptide
  cell viability / number of viable cells: decreased cell viability
HL-60 cells
  cell viability: decreased cell viability
HL-60 cells; listed as WT
  cell viability: decrease in cell viability
HL-60 cells; listed as wild type peptide
  cell viability: decreased cell viability; also recorded: reduces the number of the living cells
